According to ChEMBL document CHEMBL5696439 (Cancer Res, 2010):
Calls of active or inactive are those of the source. No cut-off for these calls is given here.

Legend:
[1] = biological target: Ribosomal protein S6 kinase alpha-6 (Homo sapiens) (UniProt Q9UK32); assay: Inhibition of recombinant human full length GST-tagged RPS6KA6 expressed in insect cells at 2 uM using Ser/Thr 20 as substrate measured after 1 hr by Z'-LYTE assay relative to control; conditions: Insect cell
[2] = biological target: Dual specificity protein kinase CLK3 (Homo sapiens) (UniProt P49761); assay: Inhibition of recombinant human full-length GST-tagged CLK3 expressed in insect cells at 2 uM using Ser/Thr 18 as substrate measured after 1 hr by Z'-LYTE assay relative to control; conditions: Insect cell
[3] = biological target: Serine/threonine-protein kinase Chk1 (Homo sapiens) (UniProt O14757); assay: Inhibition of recombinant human full-length His-tagged CHEK1 expressed in baculovirus expression system at 2 uM using Ser/Thr 19 as substrate measured after 1 hr by Z'-LYTE assay relative to control
[4] = Inhibition of recombinant human full-length His-tagged CDK2/cyclin A expressed in insect cells at 2 uM using Ser/Thr 12 as substrate measured after 1 hr by Z'-LYTE assay relative to control; conditions: Insect cell, condition cancer
786-0 = assay: Antitumor activity against PTEN null-human 786-0 cells xenografted in female nude mouse model assessed as suppression in tumor growth at 25 mg/kg, po qd administered as 5 days on/2 days off regimen for 4 cycles relative to control; format: functional; conditions: time 28 day
[5] = biological target: Hepatocyte growth factor receptor (Homo sapiens) (UniProt P08581); assay: Inhibition of recombinant human His-tagged MET (956-1390 residues) expressed in baculovirus expression system at 2 uM using Tyr 06 as substrate measured after 1 hr by Z'-LYTE assay relative to control
PC3MM2 = assay: Antiproliferative activity against human PC3MM2 cells assessed as cell growth inhibition incubated for 24 hrs by MTS assay; format: functional, cell-based; conditions: PC3MM2, 24 h
[6] = biological target: Tyrosine-protein kinase JAK3 (Homo sapiens) (UniProt P52333); assay: Inhibition of recombinant human GST-tagged JAK3 (781-1124 residues) expressed in insect cells at 2 uM using Tyr 06 as substrate measured after 1 hr by Z'-LYTE assay relative to control; conditions: Insect cell
Tyrosine-protein kinase JAK3 (Homo sapiens), sequence (P52333 whole entry, the tested form may be a part): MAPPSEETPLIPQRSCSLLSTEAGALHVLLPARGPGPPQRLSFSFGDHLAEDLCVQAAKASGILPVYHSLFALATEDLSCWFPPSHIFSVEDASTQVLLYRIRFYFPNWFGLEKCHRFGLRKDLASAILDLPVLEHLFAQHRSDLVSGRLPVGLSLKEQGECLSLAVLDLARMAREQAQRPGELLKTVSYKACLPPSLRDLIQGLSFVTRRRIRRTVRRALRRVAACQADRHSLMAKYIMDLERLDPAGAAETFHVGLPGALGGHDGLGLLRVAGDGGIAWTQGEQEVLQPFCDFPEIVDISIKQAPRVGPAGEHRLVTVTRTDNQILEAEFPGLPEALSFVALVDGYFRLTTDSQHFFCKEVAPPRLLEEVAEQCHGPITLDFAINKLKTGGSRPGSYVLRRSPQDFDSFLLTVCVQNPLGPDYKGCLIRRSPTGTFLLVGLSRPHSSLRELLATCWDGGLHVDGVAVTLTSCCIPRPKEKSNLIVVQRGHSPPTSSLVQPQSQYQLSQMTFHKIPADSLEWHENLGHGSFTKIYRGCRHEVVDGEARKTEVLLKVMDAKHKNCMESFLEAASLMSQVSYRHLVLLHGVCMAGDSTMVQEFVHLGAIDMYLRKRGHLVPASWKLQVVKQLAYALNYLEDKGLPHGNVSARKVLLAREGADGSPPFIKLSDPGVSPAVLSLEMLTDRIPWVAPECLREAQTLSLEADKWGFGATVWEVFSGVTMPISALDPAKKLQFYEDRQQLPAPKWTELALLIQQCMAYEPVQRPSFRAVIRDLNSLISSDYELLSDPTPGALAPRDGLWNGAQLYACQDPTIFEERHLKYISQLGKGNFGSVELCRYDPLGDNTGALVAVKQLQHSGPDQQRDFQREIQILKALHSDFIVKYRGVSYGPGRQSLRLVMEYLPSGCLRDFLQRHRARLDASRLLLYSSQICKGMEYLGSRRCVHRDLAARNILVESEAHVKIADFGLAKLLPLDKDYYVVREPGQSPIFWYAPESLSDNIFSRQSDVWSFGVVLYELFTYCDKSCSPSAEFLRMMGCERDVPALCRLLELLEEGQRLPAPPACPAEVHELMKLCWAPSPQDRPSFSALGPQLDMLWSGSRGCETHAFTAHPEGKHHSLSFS

[7] = biological target: Serine/threonine-protein kinase PLK2 (Homo sapiens) (UniProt Q9NYY3); assay: Inhibition of recombinant human full length GST-tagged PLK2 expressed in baculovirus expression system at 2 uM using Ser/Thr 16 as substrate measured after 1 hr by Z'-LYTE assay relative to control
Serine/threonine-protein kinase PLK2 (Homo sapiens), sequence (Q9NYY3 whole entry, looked up, the tested form may be a part): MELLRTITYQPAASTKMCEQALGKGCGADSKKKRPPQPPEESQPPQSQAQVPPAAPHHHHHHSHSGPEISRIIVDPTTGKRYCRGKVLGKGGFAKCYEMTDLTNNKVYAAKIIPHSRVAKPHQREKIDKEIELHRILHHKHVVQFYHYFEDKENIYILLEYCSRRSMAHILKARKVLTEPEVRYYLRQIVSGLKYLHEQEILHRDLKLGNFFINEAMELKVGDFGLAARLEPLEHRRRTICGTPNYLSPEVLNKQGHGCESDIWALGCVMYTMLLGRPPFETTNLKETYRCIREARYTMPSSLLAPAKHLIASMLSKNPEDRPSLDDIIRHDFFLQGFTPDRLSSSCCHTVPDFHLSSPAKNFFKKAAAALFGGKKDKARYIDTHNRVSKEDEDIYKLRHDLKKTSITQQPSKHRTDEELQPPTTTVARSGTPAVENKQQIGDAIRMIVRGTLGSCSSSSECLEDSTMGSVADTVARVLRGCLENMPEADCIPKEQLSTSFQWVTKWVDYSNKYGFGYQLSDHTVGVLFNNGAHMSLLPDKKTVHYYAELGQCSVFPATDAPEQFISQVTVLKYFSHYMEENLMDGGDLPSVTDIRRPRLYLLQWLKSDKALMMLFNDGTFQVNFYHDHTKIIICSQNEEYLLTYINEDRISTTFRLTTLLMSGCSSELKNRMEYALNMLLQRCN

[8] = biological target: Ephrin type-B receptor 3 (Homo sapiens) (UniProt P54753); assay: Inhibition of recombinant human GST-tagged EPHB3 (623-907 residues) expressed in insect cells at 2 uM using Tyr 02 as substrate measured after 1 hr by Z'-LYTE assay relative to control; conditions: Insect cell
[9] = biological target: Testis-specific serine/threonine-protein kinase 1 (Homo sapiens) (UniProt Q9BXA7); assay: Inhibition of recombinant human full length His-tagged STK22D expressed in insect cells at 2 uM using Ser/Thr 04 as substrate measured after 1 hr by Z'-LYTE assay relative to control; conditions: Insect cell
Testis-specific serine/threonine-protein kinase 1 (Homo sapiens), sequence (Q9BXA7 whole entry): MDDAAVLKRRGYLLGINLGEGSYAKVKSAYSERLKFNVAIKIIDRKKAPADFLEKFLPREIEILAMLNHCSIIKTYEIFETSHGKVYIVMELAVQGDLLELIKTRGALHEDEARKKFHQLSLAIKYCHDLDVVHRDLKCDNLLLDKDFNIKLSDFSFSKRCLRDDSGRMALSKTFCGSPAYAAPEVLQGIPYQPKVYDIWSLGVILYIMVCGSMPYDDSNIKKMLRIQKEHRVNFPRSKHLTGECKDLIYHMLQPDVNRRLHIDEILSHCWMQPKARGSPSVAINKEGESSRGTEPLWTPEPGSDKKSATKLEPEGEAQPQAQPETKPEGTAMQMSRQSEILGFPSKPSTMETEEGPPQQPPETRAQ

[10] = biological target: Protein kinase C beta type (Homo sapiens) (UniProt P05771); assay: Inhibition of recombinant human full length GST-tagged PRKCB1 expressed in baculovirus expression system at 2 uM using Ser/Thr 07 as substrate measured after 1 hr by Z'-LYTE assay relative to control
Protein kinase C beta type (Homo sapiens), sequence (P05771 2-671 limits assumed): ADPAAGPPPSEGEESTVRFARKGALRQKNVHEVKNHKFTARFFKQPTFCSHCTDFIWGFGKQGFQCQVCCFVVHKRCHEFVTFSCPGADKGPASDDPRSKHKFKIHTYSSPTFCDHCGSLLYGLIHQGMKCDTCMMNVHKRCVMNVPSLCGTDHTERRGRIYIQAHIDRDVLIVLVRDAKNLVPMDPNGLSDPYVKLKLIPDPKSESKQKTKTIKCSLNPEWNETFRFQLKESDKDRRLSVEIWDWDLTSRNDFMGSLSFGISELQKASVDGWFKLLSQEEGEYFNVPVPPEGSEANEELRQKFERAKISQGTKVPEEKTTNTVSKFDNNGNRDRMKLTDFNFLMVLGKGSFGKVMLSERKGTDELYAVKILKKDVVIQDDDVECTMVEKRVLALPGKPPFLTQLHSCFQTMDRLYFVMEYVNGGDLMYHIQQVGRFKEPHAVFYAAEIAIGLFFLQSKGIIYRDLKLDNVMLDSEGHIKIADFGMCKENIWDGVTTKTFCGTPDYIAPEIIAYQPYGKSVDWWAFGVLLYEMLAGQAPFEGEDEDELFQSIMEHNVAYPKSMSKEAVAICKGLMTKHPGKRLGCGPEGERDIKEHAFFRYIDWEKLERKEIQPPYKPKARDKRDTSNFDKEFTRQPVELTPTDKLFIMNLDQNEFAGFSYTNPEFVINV

[11] = biological target: Mitogen-activated protein kinase 11 (Homo sapiens) (UniProt Q15759); assay: Inhibition of recombinant human full length His-tagged MAPK11 expressed in insect cells at 2 uM using Ser/Thr 15 as substrate measured after 1 hr by Z'-LYTE assay relative to control; conditions: Insect cell
Mitogen-activated protein kinase 11 (Homo sapiens), sequence (Q15759 whole entry): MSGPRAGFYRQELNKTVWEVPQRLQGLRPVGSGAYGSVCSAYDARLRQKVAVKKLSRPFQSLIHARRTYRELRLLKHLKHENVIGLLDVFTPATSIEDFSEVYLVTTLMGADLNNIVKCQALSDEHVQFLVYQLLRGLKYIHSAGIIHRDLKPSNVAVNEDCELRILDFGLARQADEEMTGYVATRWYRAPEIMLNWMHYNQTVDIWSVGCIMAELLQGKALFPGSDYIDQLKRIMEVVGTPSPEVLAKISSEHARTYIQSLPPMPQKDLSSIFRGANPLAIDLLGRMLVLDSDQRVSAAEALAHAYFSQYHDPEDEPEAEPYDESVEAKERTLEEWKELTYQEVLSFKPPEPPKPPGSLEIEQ

[12] = biological target: Serine/threonine-protein kinase pim-1 (Homo sapiens) (UniProt P11309); assay: Inhibition of recombinant human full length His-tagged PIM1 expressed in insect cells at 2 uM using Ser/Thr 07 as substrate measured after 1 hr by Z'-LYTE assay relative to control; conditions: Insect cell
Serine/threonine-protein kinase pim-1 (Homo sapiens), sequence (P11309 whole entry, looked up): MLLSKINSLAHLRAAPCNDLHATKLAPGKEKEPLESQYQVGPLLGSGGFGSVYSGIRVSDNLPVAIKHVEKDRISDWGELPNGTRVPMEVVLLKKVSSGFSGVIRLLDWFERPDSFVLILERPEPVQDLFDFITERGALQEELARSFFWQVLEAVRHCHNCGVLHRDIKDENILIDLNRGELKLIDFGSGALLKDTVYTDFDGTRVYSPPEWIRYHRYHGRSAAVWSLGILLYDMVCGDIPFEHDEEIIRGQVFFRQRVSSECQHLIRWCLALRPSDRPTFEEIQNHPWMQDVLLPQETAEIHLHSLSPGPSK

MDA-MB-361 [13] = assay: Antitumor activity against human MDA-MB-361 cells assessed as block the accumulation of HIF-1alpha in low oxygen at 0.3 micromol/L incubated for 24 hrs by immunoblot analysis; format: functional, cell-based; conditions: dose 0.3 µmol/L
U-87 MG = assay: Antiproliferative activity against human U-87MG cells assessed as cell growth inhibition at 10 micromol/L incubated for 3 days by MTS assay relative to control; format: functional, U-87MG ATCC; conditions: 72 h, dose 10 µmol/L, time 3 day
[14] = biological target: Ribosomal protein S6 kinase alpha-2 (Homo sapiens) (UniProt Q15349); assay: Inhibition of recombinant human full length GST-tagged RPS6KA2 expressed in insect cells at 2 uM using Ser/Thr 06 as substrate measured after 1 hr by Z'-LYTE assay relative to control; conditions: Insect cell
[15] = biological target: Mitogen-activated protein kinase kinase kinase 8 (Homo sapiens) (UniProt P41279); assay: Inhibition of recombinant human GST-tagged MAP3K8 (30-397 residues) expressed in insect cells at 2 uM using Ser/Thr 03 as substrate measured after 1 hr by Z'-LYTE assay relative to control; conditions: Insect cell
Mitogen-activated protein kinase kinase kinase 8 (Homo sapiens), sequence (P41279 whole entry, the tested form may be a part): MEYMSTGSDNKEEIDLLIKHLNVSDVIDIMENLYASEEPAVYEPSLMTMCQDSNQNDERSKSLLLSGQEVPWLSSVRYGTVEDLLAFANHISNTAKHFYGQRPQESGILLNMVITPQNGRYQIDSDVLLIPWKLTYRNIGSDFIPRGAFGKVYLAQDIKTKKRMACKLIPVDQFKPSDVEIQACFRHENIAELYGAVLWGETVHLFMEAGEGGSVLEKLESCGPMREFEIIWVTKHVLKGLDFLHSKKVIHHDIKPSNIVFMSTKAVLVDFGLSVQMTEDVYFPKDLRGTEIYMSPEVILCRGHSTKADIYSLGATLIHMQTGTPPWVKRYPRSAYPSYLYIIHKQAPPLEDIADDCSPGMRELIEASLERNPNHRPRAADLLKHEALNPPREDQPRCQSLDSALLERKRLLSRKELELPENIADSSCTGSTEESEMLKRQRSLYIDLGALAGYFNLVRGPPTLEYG

A549 [16] = assay: Antitumor activity against VHL null-human A549 cells xenografted in female nude mouse model assessed as suppression in tumor growth at 25 mg/kg, po qd administered as 5 days on/2 days off regimen for 4 cycles relative to control; format: functional; conditions: time 28 day
A549 [17] = assay: Antiproliferative activity against human A549 cells assessed as cell growth inhibition at 10 micromol/L incubated for 3 days by MTS assay relative to control; format: functional; conditions: A549, 72 h, dose 10 µmol/L, time 3 day
MDA-MB-361 [18] = assay: Antiproliferative activity against human MDA-MB-361 cells assessed as cell growth inhibition at 10 micromol/L incubated for 3 days by MTS assay relative to control; format: functional; conditions: MDA-MB-361, 72 h, dose 10 µmol/L, time 3 day
[19] = biological target: Vascular endothelial growth factor receptor 3 (Homo sapiens) (UniProt P35916); assay: Inhibition of recombinant human GST-tagged FLT4 (800-1297 residues) expressed in insect cells at 2 uM using Tyr 04 as substrate measured after 1 hr by Z'-LYTE assay relative to control; conditions: Insect cell
[20] = biological target: Ribosomal protein S6 kinase alpha-1 (Homo sapiens) (UniProt Q15418); assay: Inhibition of recombinant human full length His-tagged RPS6KA1 expressed in insect cells at 2 uM using Ser/Thr 06 as substrate measured after 1 hr by Z'-LYTE assay relative to control; conditions: Insect cell
Ribosomal protein S6 kinase alpha-1 (Homo sapiens), sequence (Q15418 whole entry): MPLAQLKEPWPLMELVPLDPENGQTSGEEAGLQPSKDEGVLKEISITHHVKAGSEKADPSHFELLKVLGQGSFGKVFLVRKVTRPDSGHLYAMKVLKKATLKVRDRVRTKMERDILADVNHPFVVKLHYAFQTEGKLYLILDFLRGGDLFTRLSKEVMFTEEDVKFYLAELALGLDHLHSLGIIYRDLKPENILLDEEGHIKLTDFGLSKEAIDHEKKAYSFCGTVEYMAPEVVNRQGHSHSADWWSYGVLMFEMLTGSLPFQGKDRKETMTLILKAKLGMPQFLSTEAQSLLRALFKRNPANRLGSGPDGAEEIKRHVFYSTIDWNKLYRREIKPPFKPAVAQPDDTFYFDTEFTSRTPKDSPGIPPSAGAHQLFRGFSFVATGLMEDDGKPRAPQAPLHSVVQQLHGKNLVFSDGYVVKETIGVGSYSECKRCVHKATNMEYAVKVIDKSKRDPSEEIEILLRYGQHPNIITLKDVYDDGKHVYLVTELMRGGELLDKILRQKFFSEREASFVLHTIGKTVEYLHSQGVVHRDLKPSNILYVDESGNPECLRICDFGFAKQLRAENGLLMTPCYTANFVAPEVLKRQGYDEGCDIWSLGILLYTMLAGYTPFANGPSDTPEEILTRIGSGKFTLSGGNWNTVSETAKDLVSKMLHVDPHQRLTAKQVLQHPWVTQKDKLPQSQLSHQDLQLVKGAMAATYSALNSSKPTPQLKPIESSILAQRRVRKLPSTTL

Rat1 = assay: Inhibition of mTORC2 in rat Rat1 cells assessed as AKT phosphorylation at S473 level preincubated for 1 hrs in the presence of IGF-1 stimulation by immunoblot assay; format: cell-based; conditions: dose 0.01-2 µmol/L
[21] = biological target: Phosphorylase b kinase gamma catalytic chain, liver/testis isoform (Homo sapiens) (UniProt P15735); assay: Inhibition of recombinant human full length GST-tagged PHKG2 expressed in insect cells at 2 uM using Ser/Thr 07 as substrate measured after 1 hr by Z'-LYTE assay relative to control; conditions: Insect cell

CNC(=O)Nc1ccc(-c2nc(N3CC4CCC(C3)O4)c3cnn(C4CCC5(CC4)OCCO5)c3n2)cc1
inhibition [1]: 12%
inhibition [2]: 2%
inhibition [3]: 9%
inhibition at 2 µM [4]: 0%
Activity (786-0): 100%
inhibition [5]: 2%
IC50 (PC3MM2): 2 nM
inhibition [6]: 0%
inhibition [7]: 1%
inhibition [8]: 3%
inhibition [9]: 3%
inhibition [10]: 11%
inhibition [11]: 2%
inhibition [12]: 1%
Activity (MDA-MB-361 [13]): Active
inhibition at 10 µM (U-87 MG): 100%
inhibition [14]: -1%
inhibition [15]: 1%
Activity (A549 [16]): 100%
inhibition at 10 µM (A549 [17]): 100%
inhibition at 10 µM (MDA-MB-361 [18]): 100%
inhibition [19]: 4%
inhibition [20]: 4%
inhibition (Rat1): Active
inhibition [21]: 12%
